Measurements: patent US20090209522A1, “Heterocyclic Non-Peptide GNRH Antagonists” (priority 2005, published 2009)

Assays:
human GnRH receptors = target: T1, human GnRH receptors (Homo sapiens, UniProt P30968); assay: Human GnRH receptor functional assay (intracellular calcium release); assay type: cell-based; conditions: CHO-K1 cells expressing human GnRH receptors; block of GnRH (EC80)-induced intracellular calcium release; 20 minutes pre-incubation
T1 construct: expressed in transfected cells; host or cells: CHO-K1
T1 sequence (P30968 1-328): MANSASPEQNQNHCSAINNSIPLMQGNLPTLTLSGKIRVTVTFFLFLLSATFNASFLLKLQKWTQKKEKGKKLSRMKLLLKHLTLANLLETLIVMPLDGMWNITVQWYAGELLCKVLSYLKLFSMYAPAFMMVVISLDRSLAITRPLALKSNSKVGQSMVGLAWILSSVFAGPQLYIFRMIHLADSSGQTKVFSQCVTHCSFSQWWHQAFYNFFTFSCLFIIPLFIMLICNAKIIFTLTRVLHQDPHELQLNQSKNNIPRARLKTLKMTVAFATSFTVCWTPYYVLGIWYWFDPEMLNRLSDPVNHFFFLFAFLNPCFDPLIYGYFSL
Procedure: Human GnRH Receptor Functional Assay
GnRH-receptor antagonists may be functionally assessed by measurement of change in intracellular calcium levels induced by Gαq mediated increase in IP3 levels. The ability of compounds to block the intracellular release of calcium by GnRH in CHO-K1 cells expressing human GnRH receptors is determined as a measure of the compound's antagonist activity in vitro. Approximately 30,000 cells per assay well (half well 96 well assay plate—Corning) are seeded in normal culture medium. Twenty four hours after seeding the cells are loaded with a calcium sensitive fluorescent dye by replacing the culture medium with assay buffer (1× Hanks buffered saline, 25 mM HEPES, 0.1% w/v fatty acid free BSA, pH7.4) containing 2.5 mM probenecid and 1× Calcium Plus reagent (Molecular) Devices. Cells are incubated at 37° C. for 1 hour to allow for dye uptake. To test for antagonist activity, compounds at a concentration range between 0.1 nM-3.2 μM are added to the assay wells and allowed to incubate 20 minutes prior to stimulation with GnRH. After incubation with test compounds the assay plate is placed in a Flexstation II (Molecular Devices) and GnRH is added at the determined EC80 concentration (final). Ligand-dependent changes in intracellular calcium levels are determined by measuring changes in fluorescence of the dye at […] following excitation at 485 nm. Percentage inhibition curves are plotted using 4-parameter fit algorithm and IC50 values calculated for each compound.

Row | Compound | melting point [°C] | IC50 (human GnRH receptors) [nM]
1 | COc1nc(NCCCN2CCOCC2)nc(OC)c1NC(=O)c1coc(Oc2cccc(C(C)(C)C)c2)n1 [Example 1, 2-(3-tert-butylphenoxy)-N-(4,6-dimethoxy-2-(3-morpholinopropylamino)pyrimidin-5-yl)oxazole-4-carboxamide] | 85 | –
2 | COc1nc(NCCCN2CCOCC2)nc(OC)c1NC(=O)c1csc(Oc2cccc(C(C)(C)C)c2)n1 [Example 2, 2-(3-tert-butylphenoxy)-N-(4,6-dimethoxy-2-(3-morpholinopropylamino)pyrimidin-5-yl)thiazole-4-carboxamide] | 68 | 485
3 | COc1nc(NCCN(C)C)nc(OC)c1NC(=O)c1csc(Oc2cc(C(C)(C)C)ccc2C)n1 [Example 5, 2-(5-tert-Butyl-2-methylhenoxy)-N-(2-(2-(dimethylamino)ethylamino)-4,6-dimethoxypyrimidin-5-yl)thiazole-4-carboxamide] | – | 193
4 | COc1cc2c(cc1Oc1nc(C(=O)Nc3c(OC)nc(NCCNC(C)C)nc3OC)cs1)C(C)(C)CC2 [Example 24, N-(2-(2-(Isopropylamino)ethylamino)-4,6-dimethoxypyrimidin-5-yl)-2-(6-methoxy-3,3-dimethyl-2,3-dihydro-1H-inden-5-yloxy)thiazole-4-carboxamide] | – | 4
